# Experiments:
# [1] = humans; cited from earlier work
# [2] = assay type: physicochemical
# Protocol: Equal amounts of the each of the codrug were distributed into labeled test-tubes (20 nmol in each tube). Care was taken to ensure that the entire codrug was dissolved and the solution remained clear. Hydrolysis of the carbonate codrug (˜20 nmol) was conducted in isotonic phosphate buffer pH 7.4 at 32° C. in a water-bath with continuous stirring. […] Samples were collected at predetermined time intervals and stored in the freezer at −20° C. until analyzed. All experiments were conducted in triplicate. An aliquot part (250 μL) of hydrolysis solutions was mixed with 750 μL of acetonitrile, vortexed for 30s, and analyzed by HPLC for the presence of codrug and the two corresponding parent drugs, as well as for the intermediate hydrolysis product, 23. […] A Brownlee C18 reversed-phase Spheri-5 μm column (220×4.6 mm) connected to a C18 reversed-phase guard column (15×3.2 mm) was utilized and detection of solutes was carried out at 215 nm. The mobile phase consisted of a mixture of acetonitrile: 0.1% trifluoroacetic acid adjusted to pH 3.0 with triethylamine (50:50, v/v). The mobile phase flow rate was 1.5 mL/min and 100 μL of hydrolysis sample was injected onto the column.
# [3] = physchem; assay type: physicochemical; settings: thermodynamic from solid
# Protocol: The solubilities of CB-NTXOL-BUPOH, hydroxybupropion, and 6-β-naltrexol were determined by adding excess quantity of drug to mineral oil or pre-warmed HEPES-buffered Hanks' salt solution pH 7.4 at 32° C. (skin surface temperature), with equilibration while shaking in a water bath at 60 rpm. Weighing 4 mg of each of the drugs and placing them in 1 ml of each of the respective solvents was enough to ensure that there was excess drug in solution. Samples were drawn into a pre-warmed glass syringe, filtered through a syringe filter (Mineral oil: Millex FG-13, Millipore, Billerica, Mass., USA, and buffer: nylon filter, Gelman, East Hills, N.Y., USA), and measured with respect to volume and diluted with an appropriate volume of acetonitrile or buffer. The drug from the buffer samples was immediately extracted by solid phase extraction as described above. Drugs in mineral oil were diluted with a hundred-fold volume of acetonitrile and extraction recoveries were >95% for all the drugs. The sampling procedure was done in triplicate, discarding the first 40% of the initial filtrate. […]. For buffer solubilities, samples were taken after 30 min of sonication (to minimize the hydrolysis of the codrug). No significant difference was found between 30 min sonication solubility measurements and equilibrium solubility measurements taken after 48 h for 6-β-naltrexol.
# [4] = saturated solution in light mineral oil, human skin, 32° C., 48 h; codrug in 6-β-naltrexol equivalents
# Protocol: Human skin harvested during abdominal reduction surgery was used for the diffusion studies. Skin sections were obtained by using a Padgett dermatome set to 250 μm; these sections were stored at −20° C. Stored skin samples were thawed to room temperature at the time of the experiment. A PermeGear flow-through (In-Line, Riegelsville, Pa., USA) diffusion cell system was used for the skin permeation studies. Skin surface temperature was maintained at 32° C. with a circulating water bath. Data was collected by using human skin from a single donor with three cells of 6-β-naltrexol and four cells CB-NTXOL-BUPOH. Because of normal human skin inter-subject permeation variability, the codrug was compared against 6-β-naltrexol permeation within each individual skin sample. These studies were repeated three times with skin from different human subject donors. The receiver solution was HEPES-buffered Hanks' balanced salt solution pH 7.4 set at a flow rate of 1.1 ml/h. […] A saturated solution of 6-β-naltrexol or CB-NTXOL-BUPOH in light mineral oil was applied to the skin in order to maintain a maximum and constant thermodynamic activity of the drug. Each cell was charged with 0.25 ml of the respective drug solution. […] All samples were immediately processed by solid phase extraction, evaporated under nitrogen, reconstituted, and analyzed for drug content by HPLC. The human tissue use was approved by the University of Kentucky Institutional Review Board.
# Cumulative quantity of drug collected in the receiver compartment was plotted as a function of time. The flux value for a given experiment was obtained from the slope of the steady-state portion of the cumulative amount of drug permeated vs. time plot. Apparent permeability coefficient values were computed from Fick's First Law of diffusion:
# Sink conditions were maintained in the receiver throughout the experiment, so ΔC was approximated by the drug concentration (solubility in this case) in the donor compartment.
# The skin tissue was rinsed with filtered water and blotted with a paper towel. The tissue was tape-stripped twice to remove surface formulation. The area of skin with drug contact was cut out, chopped into tiny pieces, and placed in a pre-weighed vial. The vial was weighed to calculate the mass of the skin. Ten milliliters of acetonitrile was added to each vial, the vials vortexed, sonicated for 10 min, and placed in a shaker overnight. The following day, a 1 ml sample was obtained from the vials and placed in autosampler vials for analysis. […] Flux values and skin concentrations for each of the drugs were reported as mean±S.D and were statistically compared using a paired Student's t-test. Flux enhancement as well as drug disposition in the skin were considered significant at p<0.05.
# [5] = Plasma hydrolysis of the carbonate codrug; assay type: in vitro ADME, guinea pig; settings: guinea pig plasma in vitro at 37° C.
# Protocol: Guinea pig plasma, which was stored at −20° C., was thawed to room temperature. Known and sub-saturated amounts of the codrug (50 nmol) were added to approximately 2.0 ml of the guinea pig plasma and vortexed. Two-hundred μl aliquots of the spiked plasma were distributed into sealed vials, and incubated at 37° C. Samples were withdrawn at predetermined time intervals; 0, 0.5, 1, 2, 4, 6, 9, 24, 30, and 48 h. 500 μl of ACN was added to each sample to precipitate plasma protein. Each sample was vortexed and centrifuged at 10,000×g for 15 min. The supernatant was separated and evaporated under nitrogen at room temperature, and the residue was reconstituted with ACN for high-pressure liquid chromatography (HPLC) analysis. A standard curve was prepared from drug-spiked plasma samples processed by the same method. The amounts of the codrug remaining or parent drugs released were plotted against time. These hydrolytic profiles were fit to previously developed mathematical models using nonlinear least-squares regression analysis ([…]®, Micromath Inc., Salt Lake City, Utah) as described by the equations below: […]
# [6] = Differential scanning calorimetry; assay type: physicochemical
# [7] = Table 4; values obtained from Kiptoo et al.; cited from earlier work
# [8] = human skin, values obtained from Kiptoo et al., cited from earlier work
smiles,measurement,setting,value
"O=C1CC[C@@]2(O)[C@H]3Cc4ccc(O)c5c4[C@@]2(CCN3CC2CC2)[C@H]1O5 [Compound 1, Naltrexone]",oral bioavailability,[1],5-40%
Cc1c(-c2cccc(Cl)c2)oc(=O)n1C(C)(C)COC(=O)Oc1ccc2c3c1OC1C(=O)CCC4(O)C(C2)N(CC2CC2)CCC314 (stereo not drawn) [Compound 25],first-order rate constant k3,"[2]; generation of BUPOH from codrug 25, isotonic phosphate buffer pH 7.4",0.0483 h⁻¹
same,first-order rate constant k1,"[2]; hydrolysis at carbonate linker generating NTX (25) or NTXOL (26), isotonic phosphate buffer pH 7.4, 32° C.",0.0179 h⁻¹
"CC1NC(C)(C)COC1(O)c1cccc(Cl)c1 (racemic) [Compound 4, (+/−)-2-(3-chlorophenyl)-3,5,5-trimethyl-2-morpholinol]",solubility at 30 min,"[3]; aqueous buffer, pH 7.4, 32° C., 30 min sonication, read-out: Hanks' buffer solubility",3.85 mM
same,solubility at 48 h,"[3]; oil or lipid, 32° C., 48 h equilibration (Table 3), read-out: Light mineral oil solubility",4.04 mM
same,Flux from mineral oil,[4],25.89 nmol cm^−2 h^−1
same,Guinea pig plasma half-life,[5],stable
same,"Mean activity of solid @ T = 25° C., a2",[6]; calculated from melting point and heat of fusion,0.34
same,"Heat of fusion, ΔHf","[6]; ±s.d., n = 3",2.58 ± 0.012 kcal/mol
same,Light mineral oil solubility,[7],4.04 ± 0.04 mM
same,In vitro flux,[8]; codrug as NTXOL equivalent flux,25.89 ± 6.01 nmol cm^−2 h^−1
same,In vitro lag time,[8],7.83 ± 1.73 h

# From patent US8653271B2 (priority 2006, dated 2014)
